Holding throughout (test): biochemical
Common to all, as to assay type: binding

One assay addresses T1, TNS3 (Homo sapiens, UniProt Q68CZ2).
T1 construct: made in house; host or cells: HEK293 (transient transfection), unpurified extract
T1 sequence (Q68CZ2 1-1445): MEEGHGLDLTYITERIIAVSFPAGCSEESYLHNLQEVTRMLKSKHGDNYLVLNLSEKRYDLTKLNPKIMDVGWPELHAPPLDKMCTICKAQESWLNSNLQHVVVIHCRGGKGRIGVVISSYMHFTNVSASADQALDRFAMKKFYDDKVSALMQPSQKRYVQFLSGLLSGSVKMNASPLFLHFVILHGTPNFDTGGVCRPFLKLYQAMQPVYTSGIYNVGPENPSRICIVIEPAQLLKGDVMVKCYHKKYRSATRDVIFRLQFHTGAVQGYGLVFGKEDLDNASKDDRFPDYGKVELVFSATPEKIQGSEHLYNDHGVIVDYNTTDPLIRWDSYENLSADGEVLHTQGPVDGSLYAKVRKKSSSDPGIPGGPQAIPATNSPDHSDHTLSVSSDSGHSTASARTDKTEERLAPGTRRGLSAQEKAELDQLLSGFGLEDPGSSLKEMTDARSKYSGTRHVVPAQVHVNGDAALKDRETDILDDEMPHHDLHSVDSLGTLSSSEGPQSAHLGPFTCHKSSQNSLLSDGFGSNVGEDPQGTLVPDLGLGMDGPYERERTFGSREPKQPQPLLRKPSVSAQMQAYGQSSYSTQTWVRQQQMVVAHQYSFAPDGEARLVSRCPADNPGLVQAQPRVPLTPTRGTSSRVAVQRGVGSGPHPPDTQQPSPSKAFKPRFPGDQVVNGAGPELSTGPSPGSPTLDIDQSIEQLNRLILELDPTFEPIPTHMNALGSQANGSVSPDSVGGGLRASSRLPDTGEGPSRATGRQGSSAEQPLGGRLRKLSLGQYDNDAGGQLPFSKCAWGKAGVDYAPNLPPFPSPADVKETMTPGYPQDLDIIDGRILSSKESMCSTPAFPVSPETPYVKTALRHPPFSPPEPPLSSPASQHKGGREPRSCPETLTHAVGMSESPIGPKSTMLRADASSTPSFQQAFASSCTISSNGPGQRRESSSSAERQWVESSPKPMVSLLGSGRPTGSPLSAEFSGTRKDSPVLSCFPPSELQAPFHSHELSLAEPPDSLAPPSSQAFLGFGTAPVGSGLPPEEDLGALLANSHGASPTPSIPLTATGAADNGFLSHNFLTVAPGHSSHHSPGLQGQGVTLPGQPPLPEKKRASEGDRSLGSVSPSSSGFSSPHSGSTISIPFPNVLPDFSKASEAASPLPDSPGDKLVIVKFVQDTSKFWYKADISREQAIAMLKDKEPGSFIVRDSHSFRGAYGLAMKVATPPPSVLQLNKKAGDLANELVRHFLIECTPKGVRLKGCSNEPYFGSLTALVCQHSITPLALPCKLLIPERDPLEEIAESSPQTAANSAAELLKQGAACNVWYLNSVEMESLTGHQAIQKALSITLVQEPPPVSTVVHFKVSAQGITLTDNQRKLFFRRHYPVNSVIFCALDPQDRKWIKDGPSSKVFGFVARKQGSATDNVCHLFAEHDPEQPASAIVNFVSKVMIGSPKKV
The settings on record: for remaining activity at 10 µM: read-out: percent of DMSO vehicle control.

The target of the next assay is T2, PIK3R2(SH2dom.N-term.) (Homo sapiens, UniProt O00459).
T2 construct: SH2dom.N-term. denotes SH2 domain closest to N-terminus of protein; made in house; host or cells: HEK293 (transient transfection, unpurified extract)
The settings on record: for remaining activity at 10 µM: read-out: percent of DMSO vehicle control.

The target of another assay is T3, SHF (Homo sapiens, UniProt Q7M4L6).
T3 construct: made in house; host or cells: HEK293 (transient transfection), unpurified extract
T3 sequence (Q7M4L6 1-423): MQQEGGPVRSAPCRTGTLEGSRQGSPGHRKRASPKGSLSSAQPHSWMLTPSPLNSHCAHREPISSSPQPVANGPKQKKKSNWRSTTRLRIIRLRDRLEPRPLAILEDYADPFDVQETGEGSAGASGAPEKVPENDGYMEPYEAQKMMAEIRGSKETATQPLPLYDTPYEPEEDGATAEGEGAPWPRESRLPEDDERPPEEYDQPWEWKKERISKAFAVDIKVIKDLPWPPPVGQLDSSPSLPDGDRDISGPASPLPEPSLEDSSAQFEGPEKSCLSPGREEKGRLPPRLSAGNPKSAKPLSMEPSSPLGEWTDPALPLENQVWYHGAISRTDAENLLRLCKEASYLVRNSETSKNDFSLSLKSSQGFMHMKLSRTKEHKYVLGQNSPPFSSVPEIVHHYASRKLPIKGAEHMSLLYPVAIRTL
Conditions: for remaining activity at 10 µM: read-out: percent of DMSO vehicle control.

For another assay, the target named is T4, GRAP (Homo sapiens, UniProt Q13588).
T4 construct: the DNA-tagged SH2 domain concentrations used in this study were <0.1 nM; made in house; host or cells: HEK293 (transient transfection; unpurified extract)
Conditions: for percent of DMSO vehicle control at 10 µM / remaining activity at 10 µM: read-out: percent of DMSO vehicle control.

The target of a further assay is T5, STAT2 (Homo sapiens, UniProt P52630).
T5 construct: made in house; host or cells: HEK293 (transient transfection), unpurified extract
The settings on record: for percent of DMSO vehicle control at 10 µM / remaining activity at 10 µM: read-out: percent of DMSO vehicle control.

For the next assay, the target named is T6, GRB10 (Homo sapiens, UniProt Q13322).
T6 construct: the DNA-tagged SH2 domain concentrations used in this study were <0.1 nM; made in house; host or cells: HEK293 (transient transfection; unpurified extract)
T6 sequence (Q13322 493-574 limits assumed): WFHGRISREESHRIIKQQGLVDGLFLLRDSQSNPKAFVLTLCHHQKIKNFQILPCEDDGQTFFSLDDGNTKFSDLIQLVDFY
Conditions: for percent of DMSO vehicle control at 10 µM / remaining activity at 10 µM: read-out: percent of DMSO vehicle control.

“And” between values parts separate entries of the source, which are not always exact repeats. Equal values may be shown once. Read-outs that look alike come from different tables or passages of the source. Non-standard residues stand in square brackets, D forms with d. Residues, ends and D or L forms follow the SMILES beside them. *: point of attachment. pY = N[C@@H](Cc1ccc(OP(=O)(O)O)cc1)C(=O)O; Caffeoyl = O=C(/C=C/c1ccc(O)c(O)c1)*

T4 sequence (Q13588 60-154 limits assumed): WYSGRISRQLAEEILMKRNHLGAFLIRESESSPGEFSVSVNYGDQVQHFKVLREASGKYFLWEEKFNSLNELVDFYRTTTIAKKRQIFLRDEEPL
T2 sequence (O00459 330-425 limits assumed): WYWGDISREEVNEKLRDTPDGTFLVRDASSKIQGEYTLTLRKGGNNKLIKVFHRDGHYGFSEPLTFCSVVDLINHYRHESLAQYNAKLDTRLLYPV
T5 sequence (P52630 whole entry): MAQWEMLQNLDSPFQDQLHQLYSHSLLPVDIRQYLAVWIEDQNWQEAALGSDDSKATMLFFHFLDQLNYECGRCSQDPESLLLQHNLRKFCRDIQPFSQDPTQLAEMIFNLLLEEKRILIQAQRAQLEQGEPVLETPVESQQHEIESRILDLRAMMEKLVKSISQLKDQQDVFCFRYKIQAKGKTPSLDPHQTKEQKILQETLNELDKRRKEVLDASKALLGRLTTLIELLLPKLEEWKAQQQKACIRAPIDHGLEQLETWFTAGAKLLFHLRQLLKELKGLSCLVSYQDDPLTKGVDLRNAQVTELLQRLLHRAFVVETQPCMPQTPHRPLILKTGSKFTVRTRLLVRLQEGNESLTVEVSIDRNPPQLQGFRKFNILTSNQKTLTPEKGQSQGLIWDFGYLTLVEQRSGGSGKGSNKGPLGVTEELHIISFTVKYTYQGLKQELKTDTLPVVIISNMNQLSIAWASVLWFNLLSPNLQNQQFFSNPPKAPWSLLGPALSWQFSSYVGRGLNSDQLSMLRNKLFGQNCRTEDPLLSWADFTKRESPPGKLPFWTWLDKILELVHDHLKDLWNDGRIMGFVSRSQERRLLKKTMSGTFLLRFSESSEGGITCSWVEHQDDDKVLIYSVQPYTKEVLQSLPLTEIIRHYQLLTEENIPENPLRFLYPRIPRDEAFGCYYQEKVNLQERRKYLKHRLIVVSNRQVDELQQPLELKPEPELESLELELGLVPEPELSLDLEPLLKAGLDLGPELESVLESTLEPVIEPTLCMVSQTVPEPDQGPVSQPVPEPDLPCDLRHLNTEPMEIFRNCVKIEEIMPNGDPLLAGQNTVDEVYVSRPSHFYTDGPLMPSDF

For `CC[C@H](C)[C@H](NC(=O)[C@H](CO)NC(=O)[C@H](CC(C)C)NC(=O)[C@H](CCCNC(=N)N)NC(=O)[C@H](CO)NC(=O)[C@H](CS)NC(C)=O)C(=O)N[C@@H](Cc1ccc(OP(=O)(O)O)cc1)C(=O)N[C@@H](CC(=O)O)C(=O)N[C@@H](CC(N)=O)C(=O)N[C@H](C(=O)N1CCC[C@H]1C(=O)NCC(N)=O)C(C)C` [Ac-CSRLSIpYDNVPG-NH2] (Ac-CSRLSI[pY]DNVPG-NH2), at TNS3, the Kd is 120 ± 28.9 nM.
As for `CC[C@H](C)[C@H](NC(=O)[C@H](CCC(=O)O)NC(=O)[C@H](CCC(=O)O)NC(=O)[C@H](Cc1ccc(OP(=O)(O)O)cc1)NC(C)=O)C(=O)N[C@@H](CCC(=O)O)C(N)=O` [Ac-pYEEIE-NH2] (Ac-[pY]EEIE-NH2), the “percent of DMSO vehicle control” value on PIK3R2(SH2dom.N-term.) (primary screen, 10 μM) came to 74.1%; on SHF (primary screen, 10 μM) it was 60.2%; at GRAP (primary screen, 10 μM), 112.9%; at STAT2 (primary screen, 10 μM), 53.6±1.3%; at TNS3 (primary screen, 10 μM), 83.2±4.0%; at GRB10 (primary screen, 10 μM) it was 155.2%.
In the case of `CC(=O)N[C@@H](Cc1ccc(CP(=O)(O)O)cc1)C(=O)NC1(C(=O)N[C@@H](CC(N)=O)C(=O)NCCCc2c(O)ccc3ccccc23)CCCCC1` [CGP78850], the remaining activity at 10 µM on PIK3R2(SH2dom.N-term.) is 141 ± 24.2%; at SHF it was 77.1 ± 2.6%; at TNS3 it was 9.8 ± 0.1%. The results for the Kd on GRAP and on TNS3 were 3.3 nM and 620 nM, respectively. For the same compound, the results for the percent of DMSO vehicle control at 10 µM at GRAP, on STAT2 and at GRB10 were 0%, 27.3% and 88.5 ± 13.4%, respectively. For the same compound, the KD entry on STAT2 (dose-response) was “No Hit”.
Regarding `CC[C@H](C)[C@H](NC(=O)[C@H](CCC(=O)O)NC(=O)[C@H](CCC(=O)O)NC(=O)[C@H](Cc1ccc(OP(=O)(O)O)cc1)NC(=O)/C=C/c1ccc(O)c(O)c1)C(=O)N[C@@H](CCC(=O)O)C(=O)O` [Caffeic acid-pYEEIE] (Caffeoyl-[pY]EEIE-OH), the equilibrium dissociation constant (Kd) on PIK3R2(SH2dom.N-term.) was found to be 180 ± 52 nM; at SHF, 27200 ± 8880 nM; on STAT2, 3.6 ± 0.18 nM; at TNS3 it was 1000 ± 210 nM; at GRB10, 480 ± 79 nM. Besides, the remaining activity at 10 µM turned out to be 0% at PIK3R2(SH2dom.N-term.), 50.6 ± 4.3% at SHF and 1.8 ± 0.6% at TNS3. The percent of DMSO vehicle control at 10 µM at GRAP was determined as 109.9 ± 0.3%; on STAT2 it was 0%; at GRB10, 0.7 ± 0.9%.
On to `O=C(CCl)Nc1cccc(CNC(=O)[C@H](Cc2ccc(OP(=O)(O)O)cc2)NC(=O)Cc2ccc(F)cc2)c1` [MN551], for which the remaining activity at 10 µM on PIK3R2(SH2dom.N-term.) (primary screen, 10 μM) is 101%; at SHF (primary screen, 10 μM), 103%; at GRAP (primary screen, 10 μM), 48.7%; on STAT2 (primary screen, 10 μM), 217%; on TNS3 (primary screen, 10 μM), 48.5 ± 7.3%; at GRB10 (primary screen, 10 μM), 61.8%.
As to `NC(=O)CC[C@H](NC(=O)[C@@H]1CC[C@@H]2CCN(C(=O)CCCCCC#Cc3cccc4c3CN(C3CCC(=O)NC3=O)C4=O)C[C@H](NC(=O)c3cc4cc(C(F)(F)P(=O)(O)O)ccc4[nH]3)C(=O)N21)C(=O)NC(c1ccccc1)c1ccccc1` (some centres unmarked) [SD-36], the figures for the remaining activity at 10 µM at PIK3R2(SH2dom.N-term.), at SHF and at TNS3 were 132%, 100 ± 5.2% and 57.6 ± 6%, respectively. Also, the percent of DMSO vehicle control at 10 µM at GRAP is 89.2 ± 4.6%; at STAT2, 0.1 ± 1.3%; on GRB10, 111 ± 9.2%. The Kd at STAT2 (dose-response) was 450 nM and 454 nM.
On to `CC(=O)N1CC[C@H]2CC[C@@H](C(=O)N[C@@H](CCC(N)=O)C(=O)NC(c3ccccc3)c3ccccc3)N2C(=O)[C@@H](NC(=O)c2cc3cc(C(F)(F)P(=O)(O)O)ccc3[nH]2)C1` [SI-109], for which the remaining activity at 10 µM is 130% at PIK3R2(SH2dom.N-term.), 78.9 ± 3% at SHF and 128% on TNS3. The percent of DMSO vehicle control at 10 µM on GRAP is 141%; on STAT2 it was 100%; at GRB10, 122%. Binding on STAT2 was characterised by a dissociation constant (Kd) of 1300 ± 1300 nM.
With `C/C(=C\C(=O)N[C@H](C(=O)N1CCC[C@H]1C(=O)N(c1ccccc1)c1ccc(I)cc1)C(C)(C)C)c1ccc(OP(=O)(O)O)cc1` [STAT6-IN-1], the remaining activity at 10 µM was 48.2 ± 5.7% at PIK3R2(SH2dom.N-term.) (primary screen, 10 μM); 43.6 ± 7.2% at SHF (primary screen, 10 μM); 52 ± 15.9% on GRAP (primary screen, 10 μM); 35.1 ± 16.6% at STAT2 (primary screen, 10 μM); 57 ± 10.1% at TNS3 (primary screen, 10 μM); 14.6 ± 11% on GRB10 (primary screen, 10 μM). The KD entry on GRB10 (dose-response) was “No Hit”.
As to `CC(C)(C)[C@H](NC(=O)/C=C/c1ccc(OP(=O)(O)O)cc1)C(=O)N1CCC[C@H]1C(=O)N(c1ccccc1)c1ccc(I)cc1` [STAT6-IN-3], the remaining activity at 10 µM on PIK3R2(SH2dom.N-term.) (primary screen, 10 μM) was determined as 88.4 ± 18.2%; at SHF (primary screen, 10 μM), 89.5 ± 4.6%; at GRAP (primary screen, 10 μM), 73.5 ± 23.6%; on STAT2 (primary screen, 10 μM) it was 60.3 ± 12.5%; on TNS3 (primary screen, 10 μM), 55.6 ± 12.1%; at GRB10 (primary screen, 10 μM), 58.8 ± 17.6%. Further, the Kd on STAT2 (dose-response, read-out: KD) came to 510 ± 83 nM.
`O=C(COc1ccc2cc(C(=O)Nc3ccccc3)ccc2c1)NCc1ccc(OP(=O)(O)O)c(OP(=O)(O)O)c1` [Stafib-1]: the remaining activity at 10 µM at PIK3R2(SH2dom.N-term.) (primary screen, 10 μM) is 97.2 ± 21.5%; on SHF (primary screen, 10 μM), 79.7 ± 9.4%; at GRAP (primary screen, 10 μM), 76.2 ± 27%; on STAT2 (primary screen, 10 μM) it was 153%; at TNS3 (primary screen, 10 μM), 77.8 ± 9%; on GRB10 (primary screen, 10 μM), 78.1 ± 12.9%. The Kd on STAT2 (dose-response, read-out: KD) amounted to 9300 ± 4300 nM.

As usually defined, the Kd is a measure of binding affinity in units of concentration.

The values are drawn from PMC12951562, “SH2scan: Mapping SH2 Domain-Ligand Binding Selectivity for Inhibitors and Degraders” (Journal of Medicinal Chemistry, 2026).
